PubChem BioAssay (NCI)
“And” between values parts separate entries of the source, which are not always exact repeats. Equal values may be shown once.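 Values below derive from 48-hour exposures of cells grown in 96-well plates, with endpoints linearly interpolated between the two concentrations bracketing the appropriate inhibition level. GI50: concentration for 50% inhibition of growth. TGI: total growth inhibition.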

How the values were obtained:
Assay in all cases: NCI anticancer screen, dose series, 48 h
[1] = system: MDA-MB-231 breast
[2] = system: HCT-116 colon
[3] = system: MOLT-4 leukemia
[4] = system: UACC-257 melanoma
[5] = system: NCI-H522 lung
[6] = system: IGROV1 ovarian
[7] = system: NCI/ADR-RES ovarian
[8] = system: OVCAR-5 ovarian
[9] = system: CCRF-CEM leukemia
[10] = system: T-47D breast

Structure (SMILES)	GI50 [1]	TGI [1]	GI50 [2]	TGI [2]	GI50 [3]	TGI [3]	GI50 [4]	TGI [4]	GI50 [5]	TGI [5]	GI50 [6]	TGI [6]	GI50 [7]	TGI [7]	TGI [8] [µM]	TGI [9]	GI50 [10]	TGI [10]	GI50 [8]	GI50 [9]
CC(C)(C)C1CCC2c3c([nH]c4ccccc34)C3C(=O)N(c4ccc(Cl)cc4)C(=O)C3C2C1 (stereo not given)	56.1 µM and > 10 µM	> 100 µM	65.3 µM and > 10 µM	> 100 µM	23.6 µM and > 10 µM	50.6 µM and > 10 µM	> 100 µM	> 100 µM	60.8 µM and > 10 µM	> 100 µM	> 100 µM	> 100 µM	51.3 µM and > 10 µM	> 100 µM	0.256	47.3 µM and > 10 µM	60.9 µM and > 10 µM	> 100 µM	–	–
COc1ccc(/C(COc2ccc3oc(-c4ccccc4)cc(=O)c3c2)=N\O)cc1	0.182 µM	9.17 µM	< 0.005 µM	9.36 µM	0.678 µM	> 50 µM	0.316 µM	–	1.87 µM	39.5 µM	< 0.005 µM	> 50 µM	0.11 µM	5.51 µM	> 25.5	> 50 µM	2.41 µM	> 50 µM	0.377 µM	0.346 µM
COc1ccc(Cc2coc3ccccc3c2=O)cc1OC	–	> 100 µM	–	> 100 µM	–	> 100 µM	–	> 100 µM	–	> 100 µM	–	> 100 µM	–	> 100 µM	> 100	> 100 µM	–	> 100 µM	–	–
CC(C)(C)c1ccc(Oc2ccc(N)cn2)cc1	31.7 µM	> 100 µM	47.5 µM	> 100 µM	3.96 µM	> 100 µM	37.8 µM	> 100 µM	9.46 µM	> 100 µM	> 100 µM	> 100 µM	51.6 µM	> 100 µM	> 100	> 100 µM	26.2 µM	> 100 µM	> 100 µM	1.06 µM
CC1C(C)N(C(=O)CCl)c2ccccc2N1C(=O)CCl (stereo not given)	1.18 µM	3.6 µM	0.185 µM	0.406 µM	0.243 µM	0.81 µM	0.723 µM	3.16 µM	0.162 µM	0.347 µM	0.203 µM	0.435 µM	0.784 µM	13.3 µM	2.57	0.629 µM	0.843 µM	2.67 µM	0.896 µM	0.15 µM
COc1ncc(Nc2ncc([C@@H](C)N3CCN(S(C)(=O)=O)CC3)cc2-c2nc(C)nc(N)n2)cc1F	1.59 µM	13.9 µM	1.87 µM	> 100 µM	0.0402 µM	4.13 µM	0.0561 µM	> 79.4 µM	1.09 µM	59.1 µM	0.0139 µM	0.0829 µM	1.61 µM	> 100 µM	–	> 54.1 µM	< 0.01 µM	0.0648 µM	< 0.0266 µM	0.145 µM
Nc1nc([Se])c2ncn(C3OC(CO)C(O)C3O)c2n1 (stereo not given)	2.81 µM	69.8 µM	4 µM	> 100 µM	3.4 µM	> 100 µM	37.5 µM	> 100 µM	42.5 µM	> 100 µM	25.9 µM	> 100 µM	5.57 µM	> 100 µM	> 100	> 100 µM	28.8 µM	> 100 µM	8.24 µM	2.28 µM
COC(=O)c1ccc(CN2C(=O)C(Cl)=C(Nc3cccc(Cl)c3C)C2=O)cc1	6.15 µM	47.3 µM	4.44 µM	> 100 µM	5.14 µM	> 100 µM	45.6 µM	> 100 µM	3.51 µM	20.8 µM	2.76 µM	18.5 µM	34.8 µM	> 100 µM	> 100	> 100 µM	> 100 µM	> 100 µM	58.1 µM	3.32 µM
COc1cc(Nc2ncc(-c3ccccc3)o2)cc(OC)c1	> 25 µM	> 25 µM	> 25 µM	> 25 µM	> 18.7 µM	> 25 µM	> 25 µM	> 25 µM	> 25 µM	> 25 µM	> 25 µM	> 25 µM	> 25 µM	> 25 µM	> 25	> 25 µM	> 25 µM	> 25 µM	> 25 µM	> 25 µM
Cc1cccc2nc3ccccc3c(Nc3ccc(NS(C)(=O)=O)cc3)c12	9.57 µM	24.2 µM	3.67 µM	15.9 µM	1.72 µM	5.91 µM	10.4 µM	22.9 µM	8.09 µM	22 µM	4.3 µM	38.6 µM	15.8 µM	48.8 µM	38.9	12.2 µM	7.59 µM	24 µM	16.4 µM	3.26 µM
Nc1ccc(C(=O)N/C(=C\c2cccc([N+](=O)[O-])c2)c2nc3[nH]c(=S)[nH]c(=O)c3[nH]2)cc1	–	> 94.5 µM	–	> 100 µM	–	> 56.2 µM	–	> 100 µM	–	> 100 µM	–	> 100 µM	–	> 100 µM	> 100	> 100 µM	–	> 89.5 µM	–	–
Cc1ccccc1NC(=O)c1sc2nc(C)c(C(=O)/C=C/c3ccccc3)cc2c1N	1.8 µM	11 µM	0.896 µM	1.96 µM	1.57 µM	> 50 µM	1.83 µM	8.71 µM	1.15 µM	3.42 µM	0.953 µM	2.08 µM	1.5 µM	> 50 µM	2.62	> 50 µM	0.975 µM	2.34 µM	1.01 µM	1.5 µM
CNC(=O)c1c(NC(=O)c2ccc(C(C)(C)C)cc2)sc2c1CCC(=O)C2	0.3 µM	1.13 µM	0.0971 µM	1.4 µM	0.314 µM	2.05 µM	0.824 µM	3.49 µM	0.197 µM	1.41 µM	0.373 µM	1.64 µM	0.313 µM	1.29 µM	1.41	> 20.1 µM	0.184 µM	1.53 µM	0.341 µM	0.0886 µM
CCC(C)[C@H](NC(=O)Nc1cc(C(F)(F)F)cc(C(F)(F)F)c1)C(=O)N[C@@H](Cc1cn(C)cn1)C(=O)OC (stereo not given in full)	0.619 µM	1.12 µM	0.606 µM	1.21 µM	0.873 µM	2.24 µM	1.3 µM	1.85 µM	0.584 µM	1.15 µM	1.04 µM	2.06 µM	3.78 µM	5.57 µM	1.83	1.45 µM	0.912 µM	1.74 µM	1.32 µM	0.0146 µM
CC1(C)CNc2cc(NC(=O)c3cccnc3NCc3ccncc3)ccc21	29.2 µM	> 100 µM	34.3 µM	> 100 µM	23.8 µM	> 100 µM	28.8 µM	98.2 µM	25.7 µM	> 95.4 µM	19.9 µM	> 84.2 µM	25.1 µM	> 100 µM	> 100	> 100 µM	17 µM	> 88.5 µM	50.9 µM	23.7 µM
Cc1ccc(/C=N/Nc2nc(Nc3ccccc3)nc(-n3nc(C)cc3C)n2)cc1	6.44 µM	> 100 µM	3.18 µM	11.7 µM	2.4 µM	8.53 µM	9.04 µM	39.5 µM	2.67 µM	6.48 µM	4.99 µM	44.8 µM	2.53 µM	8.67 µM	> 100	> 100 µM	2.55 µM	7.41 µM	15.4 µM	3.72 µM
CNC(=O)c1cc(Oc2ccc(NC(=O)Nc3ccc(Cl)c(C(F)(F)F)c3)c(F)c2)ccn1	1.22 µM and 1.26 µM	4.44 µM and 4.92 µM	0.944 µM and 0.792 µM	10.8 µM and 8.8 µM	2.21 µM and 1.91 µM	5.75 µM and 6.59 µM	1.97 µM and 1.35 µM	6.03 µM and 5.1 µM	1.73 µM and 1.7 µM	5.84 µM and 6.43 µM	2.75 µM and 1.85 µM	11.2 µM and > 10 µM	2.67 µM and 2.44 µM	9.81 µM and > 10 µM	> 44.4	7.01 µM and 8.88 µM	2.08 µM and 1.53 µM	9.1 µM and 7.49 µM	2.68 µM and 2.3 µM	2.24 µM and 2.51 µM
COc1ccc2c(c1OC)CO[C@@H]2[C@H]1c2c(cc3c(c2OC)OCO3)CCN1S(=O)(=O)c1cn(C)cn1	4.49 µM	> 100 µM	0.494 µM	> 100 µM	3.84 µM	> 100 µM	9.43 µM	> 100 µM	0.427 µM	8.32 µM	1.45 µM	> 100 µM	1.97 µM	8.35 µM	> 100	> 100 µM	16.9 µM	> 100 µM	4.22 µM	0.944 µM
COc1cc(/C=N/Nc2ncnc3c2cnn3-c2ccccc2)ccc1O	2.34 µM	> 25 µM	8.18 µM	> 25 µM	> 25 µM	> 25 µM	> 25 µM	> 25 µM	2.27 µM	> 17.3 µM	5.03 µM	> 22.8 µM	> 20.9 µM	> 25 µM	> 25	> 25 µM	7.64 µM	> 25 µM	> 25 µM	4.54 µM
COc1ccc2c(c1)[nH]c(=O)c1c3cccc(F)c3cn21	0.283 µM	> 100 µM	0.0458 µM	13.9 µM	0.0425 µM	14.6 µM	> 92.9 µM	> 100 µM	0.0756 µM	> 35.5 µM	0.0397 µM	–	0.038 µM	14.3 µM	> 100	0.304 µM	42.1 µM	> 100 µM	0.508 µM	0.0282 µM
Cc1cc2c(cc1Cl)S/C(=C/C(=O)O)C(Nc1ccc3ncsc3c1)=NS2(=O)=O	20.9 µM	> 63.7 µM	9.93 µM	> 42.9 µM	5.5 µM	> 26.8 µM	> 27.2 µM	> 46 µM	13 µM	> 67.6 µM	31.9 µM	> 100 µM	> 18.1 µM	> 34.7 µM	> 42.4	> 53.5 µM	22.1 µM	> 54.8 µM	23.4 µM	7.22 µM
O=C(CCCN1CCC(O)(c2ccc(Cl)cc2)CC1)c1ccc(F)cc1	–	51.5 µM	–	33.6 µM	–	> 100 µM	–	46.7 µM	–	39.5 µM	–	> 100 µM	–	88.8 µM	> 100	> 100 µM	–	> 100 µM	–	–
Cc1ccc(S(=O)(=O)SC(C)(C)C)cc1	–	47.6 µM	–	31.8 µM	–	41.5 µM	–	50.3 µM	–	32.3 µM	–	37.3 µM	–	90.4 µM	> 76	39.2 µM	–	> 100 µM	–	–
CC1=C(SCCC(=O)OC(C[Se]C2=C(C)C(=O)c3ccccc3C2=O)C(=O)NCCCCCC(=O)OCc2ccccc2)C(=O)c2ccccc2C1=O (stereo not given)	6.81 µM	22 µM	1.99 µM	4.6 µM	4.08 µM	> 100 µM	3.46 µM	10.1 µM	3.96 µM	15 µM	2.13 µM	14.5 µM	4.59 µM	18.3 µM	18.7	> 100 µM	17.7 µM	51.8 µM	5.05 µM	2.82 µM
